Reference: ChEMBL document CHEMBL5356959, “Bifunctional backbone modified squaramide dipeptides as amyloid beta (Aβ) aggregation inhibitors” (Bioorg Med Chem, 2024)
Values belong to the compound of their own block, whether it stands above or below them. Calls of active or inactive are those of the source. The rule behind the calls is not given here.

Tests used:
[1] = Competitive binding affinity to Cu(II) assessed as metal chelating activity by measuring compound-Cu(II) complex formation incubated for 30 mins in the presence of ZnSO4.7H2O by UV-vis spectrophotometric analysis
[2] = Metal chelating activity assessed as compound-Fe(III) complex formation by measuring hyperchromic shift at 1:1 molar ratio incubated for 30 mins by UV-Visible spectrophotometric analysis
[3] = Metal chelating activity assessed as compound-Cu(II) complex formation by measuring hyperchromic shift at 1:1 molar ratio incubated for 30 mins by UV-Visible spectrophotometric analysis
[4] = Competitive binding affinity to Fe(III) assessed as metal chelating activity by measuring compound-Fe(III) complex formation incubated for 30 mins in the presence of FeCl2 by UV-Visible spectrophotometric analysis
[5] = Competitive binding affinity to Fe(III) assessed as metal chelating activity by measuring compound-Fe(III) complex formation incubated for 30 mins in the presence of NiCl2 by UV-Visible spectrophotometric analysis
[6] = Competitive binding affinity to Fe(III) assessed as metal chelating activity by measuring compound-Fe(III) complex formation incubated for 30 mins in the presence of MgSO4.7H2O by UV-Visible spectrophotometric analysis
[7] = Competitive binding affinity to Fe(III) assessed as metal chelating activity by measuring compound-Fe(III) complex formation incubated for 30 mins in the presence of MnCl2 by UV-Visible spectrophotometric analysis
[8] = Competitive binding affinity to Zn(II) assessed as metal chelating activity by measuring compound-Zn(II) complex formation incubated for 30 mins in the presence of CaCl2 by UV-vis spectrophotometric analysis
[9] = target: T1, Amyloid-beta precursor protein (Homo sapiens, UniProt P05067); test: Inhibition of amyloid-beta (unknown origin) aggregation at 25 uM at 1:10 compound:amyloidbeta ratio incubated for 24 hrs by ThT fluorescence assay
T1 sequence (P05067 whole entry): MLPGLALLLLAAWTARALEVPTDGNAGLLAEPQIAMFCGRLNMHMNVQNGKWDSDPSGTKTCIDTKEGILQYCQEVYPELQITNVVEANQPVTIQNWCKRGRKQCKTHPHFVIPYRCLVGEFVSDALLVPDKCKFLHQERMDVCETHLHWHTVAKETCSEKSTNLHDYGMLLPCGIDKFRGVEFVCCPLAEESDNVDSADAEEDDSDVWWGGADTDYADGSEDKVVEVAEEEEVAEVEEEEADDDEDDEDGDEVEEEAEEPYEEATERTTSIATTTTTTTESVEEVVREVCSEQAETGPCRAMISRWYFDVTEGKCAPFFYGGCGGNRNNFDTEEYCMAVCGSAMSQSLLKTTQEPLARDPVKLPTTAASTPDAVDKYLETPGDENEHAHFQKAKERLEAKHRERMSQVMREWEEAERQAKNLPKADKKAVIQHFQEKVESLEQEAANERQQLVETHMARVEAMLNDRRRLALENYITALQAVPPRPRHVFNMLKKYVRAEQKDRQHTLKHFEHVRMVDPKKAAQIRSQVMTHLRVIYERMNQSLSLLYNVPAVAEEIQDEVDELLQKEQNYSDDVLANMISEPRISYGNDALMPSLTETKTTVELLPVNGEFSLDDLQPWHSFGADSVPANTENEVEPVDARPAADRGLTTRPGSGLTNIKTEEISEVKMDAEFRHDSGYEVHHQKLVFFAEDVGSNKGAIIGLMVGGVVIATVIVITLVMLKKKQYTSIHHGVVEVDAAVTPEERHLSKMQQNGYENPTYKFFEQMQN

N2a = test: Cytotoxicity against mouse Neuro2a cells assessed as reduction in cell viability at 50 uM incubated for 48 hrs by Alamar blue assay; type: toxicity, cell-based
[10] = target: T1, Amyloid-beta precursor protein; test: Inhibition of Cu(II)-induced amyloid-beta (unknown origin) aggregation assessed as disaggregation at 10 uM preincubated with CuSO4.5H2O for 30 mins followed by compound addition and measured after 24 hrs by ThT fluorescence assay
[11] = Competitive binding affinity to Zn(II) assessed as metal chelating activity by measuring compound-Zn(II) complex formation incubated for 30 mins in the presence of MgSO4.7H2O by UV-vis spectrophotometric analysis
[12] = target: T1, Amyloid-beta precursor protein; test: Inhibition of amyloid-beta (unknown origin) aggregation at 1:10 compound:amyloidbeta ratio incubated for 24 hrs by ThT fluorescence assay
[13] = Competitive binding affinity to Zn(II) assessed as metal chelating activity by measuring compound-Zn(II) complex formation incubated for 30 mins in the presence of MnCl2 by UV-vis spectrophotometric analysis
[14] = Competitive binding affinity to Zn(II) assessed as metal chelating activity by measuring compound-Zn(II) complex formation incubated for 30 mins in the presence of copper by UV-vis spectrophotometric analysis
[15] = Metal chelating activity assessed as compound-Zn(II) complex formation by measuring hyperchromic shift at 1:1 molar ratio incubated for 30 mins by UV-Visible spectrophotometric analysis
[16] = Competitive binding affinity to Cu(II) assessed as metal chelating activity by measuring compound-Cu(II) complex formation incubated for 30 mins in the presence of NiCl2 by UV-vis spectrophotometric analysis
[17] = Competitive binding affinity to Fe(III) assessed as metal chelating activity by measuring compound-Fe(III) complex formation incubated for 30 mins in the presence of zinc by UV-Visible spectrophotometric analysis
[18] = Competitive binding affinity to Cu(II) assessed as metal chelating activity by measuring compound-Cu(II) complex formation incubated for 30 mins in the presence of CaCl2 by UV-vis spectrophotometric analysis
[19] = Competitive binding affinity to Cu(II) assessed as metal chelating activity by measuring compound-Cu(II) complex formation incubated for 30 mins in the presence of FeCl2 by UV-vis spectrophotometric analysis
[20] = Competitive binding affinity to Cu(II) assessed as metal chelating activity by measuring compound-Cu(II) complex formation incubated for 30 mins in the presence of MnCl2 by UV-vis spectrophotometric analysis
[21] = Competitive binding affinity to Zn(II) assessed as metal chelating activity by measuring compound-Zn(II) complex formation incubated for 30 mins in the presence of NiCl2 by UV-vis spectrophotometric analysis
[22] = target: T1, Amyloid-beta precursor protein; test: Binding affinity to amyloid-beta (unknown origin) in Tris-HCL buffer assessed as conformational change at 10 uM at 1:1 molar ratio incubated for 24 hrs by circular dichroism analysis
[23] = Antioxidant activity assessed as DPPH radical scavenging activity at 10 uM incubated under dark condition for 30 mins by absorbance based plate reader analysis; type: functional
[24] = Competitive binding affinity to Zn(II) assessed as metal chelating activity by measuring compound-Zn(II) complex formation incubated for 30 mins in the presence of FeCl2 by UV-vis spectrophotometric analysis
[25] = Competitive binding affinity to Fe(III) assessed as metal chelating activity by measuring compound-Fe(III) complex formation incubated for 30 mins in the presence of copper by UV-Visible spectrophotometric analysis
[26] = Competitive binding affinity to Cu(II) assessed as metal chelating activity by measuring compound-Cu(II) complex formation incubated for 30 mins in the presence of MgSO4.7H2O by UV-vis spectrophotometric analysis
[27] = Competitive binding affinity to Fe(III) assessed as metal chelating activity by measuring compound-Fe(III) complex formation incubated for 30 mins in the presence of CaCl2 by UV-Visible spectrophotometric analysis
[28] = Metal chelating activity assessed as compound-Cu(II) complex formation by measuring hyperchromic shift incubated for 30 mins by UV-Visible spectrophotometric analysis
[29] = Metal chelating activity assessed as compound-Zn(II) complex formation by measuring hyperchromic shift incubated for 30 mins by UV-Visible spectrophotometric analysis
[30] = Metal chelating activity assessed as compound-Fe(III) complex formation by measuring hyperchromic shift incubated for 30 mins by UV-Visible spectrophotometric analysis

Activity [1]: Active
Activity [2]: Active
Activity [3]: Active
Activity [4]: Active
Activity [5]: Active
Activity [6]: Active
Activity [7]: Active
Activity [8]: Active
inhibition [9]: Active
inhibition [10]: Active
Activity [11]: Active
IC50 [12]: 8.08 µM
Activity [13]: Active
Activity [14]: Active
Activity [15]: Active
Activity [16]: Active
Activity [17]: Active
Activity [18]: Active
Activity [19]: Active
Activity [20]: Active
Activity [21]: Active
Activity [22]: Active
Activity [24]: Active
Activity [25]: Active
Activity [26]: Active
Activity [27]: Active
SMILES: C[C@H](O)[C@H](Nc1c(NC[C@H](Cc2ccccc2)NC(=O)OC(C)(C)C)c(=O)c1=O)C(=O)O
Activity (N2a): Non-Toxic
Activity [23]: Active

Activity [28]: Active
Activity [29]: Active
Activity [30]: Active
SMILES: COc1c(NC[C@H](Cc2ccccc2)NC(=O)OC(C)(C)C)c(=O)c1=O

SMILES: CC(C)(C)OC(=O)N[C@H](CNc1c(N[C@@H](Cc2c[nH]c3ccccc23)C(=O)O)c(=O)c1=O)Cc1ccccc1
Activity (N2a): Non-Toxic

SMILES: CC(C)(C)OC(=O)N[C@H](CNc1c(N[C@@H](Cc2ccc(O)cc2)C(=O)O)c(=O)c1=O)Cc1ccccc1
Activity (N2a): Non-Toxic

SMILES: CC(C)(C)OC(=O)N[C@H](CNc1c(N2CCC[C@H]2C(=O)O)c(=O)c1=O)Cc1ccccc1
Activity (N2a): Non-Toxic

SMILES: CC(C)(C)OC(=O)N[C@H](CNc1c(N[C@@H](Cc2c[nH]cn2)C(=O)O)c(=O)c1=O)Cc1ccccc1
Activity (N2a): Non-Toxic

Activity [28]: Active
Activity [29]: Active
Activity [30]: Active
SMILES: COc1c(OC)c(=O)c1=O

inhibition [9]: Active
IC50 [12]: 17.5 µM
SMILES: CC(C)(C)OC(=O)N[C@H](CNc1c(N[C@@H](CC(N)=O)C(=O)O)c(=O)c1=O)Cc1ccccc1
Activity (N2a): Non-Toxic

SMILES: CC(C)(C)OC(=O)N[C@H](CNc1c(N[C@@H](CO)C(=O)O)c(=O)c1=O)Cc1ccccc1
Activity (N2a): Non-Toxic

SMILES: CC(C)(C)OC(=O)N[C@H](CNc1c(NCC(=O)O)c(=O)c1=O)Cc1ccccc1
Activity (N2a): Non-Toxic

SMILES: CC(C)(C)OC(=O)N[C@H](CNc1c(N[C@@H](CCCCN)C(=O)O)c(=O)c1=O)Cc1ccccc1
Activity (N2a): Non-Toxic

SMILES: CC(C)(C)OC(=O)N[C@H](CNc1c(N[C@@H](CCC(N)=O)C(=O)O)c(=O)c1=O)Cc1ccccc1
Activity (N2a): Non-Toxic

SMILES: C[C@H](Nc1c(NC[C@H](Cc2ccccc2)NC(=O)OC(C)(C)C)c(=O)c1=O)C(=O)O
Activity (N2a): Non-Toxic

Activity [1]: inactive
Activity [3]: inactive
Activity [8]: Active
inhibition [9]: Active
inhibition [10]: Active
Activity [11]: Active
IC50 [12]: 7.71 µM
Activity [13]: Active
Activity [14]: Active
Activity [16]: inactive
Activity [18]: inactive
Activity [19]: inactive
Activity [20]: inactive
Activity [21]: Active
Activity [24]: Active
Activity [26]: inactive
SMILES: CC(C)[C@H](Nc1c(NC[C@H](Cc2ccccc2)NC(=O)OC(C)(C)C)c(=O)c1=O)C(=O)O
Activity (N2a): Non-Toxic
Activity [23]: Active

Activity [28]: inactive
Activity [29]: inactive
Activity [30]: inactive
SMILES: CC(C)(C)OC(=O)N[C@H](CN)Cc1ccccc1

SMILES: CC(C)(C)OC(=O)N[C@H](CNc1c(N[C@@H](CCC(=O)O)C(=O)O)c(=O)c1=O)Cc1ccccc1
Activity (N2a): Non-Toxic

SMILES: CC(C)(C)OC(=O)N[C@H](CNc1c(N[C@@H](CC(=O)O)C(=O)O)c(=O)c1=O)Cc1ccccc1
Activity (N2a): Non-Toxic

SMILES: CC(C)(C)OC(=O)N[C@H](CNc1c(N[C@@H](CCCNC(=N)N)C(=O)O)c(=O)c1=O)Cc1ccccc1
Activity (N2a): Non-Toxic

SMILES: CC(C)C[C@H](Nc1c(NC[C@H](Cc2ccccc2)NC(=O)OC(C)(C)C)c(=O)c1=O)C(=O)O
Activity (N2a): Non-Toxic

SMILES: CC[C@@H](C)[C@H](Nc1c(NC[C@H](Cc2ccccc2)NC(=O)OC(C)(C)C)c(=O)c1=O)C(=O)O
Activity (N2a): Non-Toxic

inhibition [9]: Active
IC50 [12]: 14.6 µM
SMILES: CC(C)(C)OC(=O)N[C@H](CNc1c(N[C@@H](Cc2ccccc2)C(=O)O)c(=O)c1=O)Cc1ccccc1
Activity (N2a): Non-Toxic

SMILES: CSCC[C@H](Nc1c(NC[C@H](Cc2ccccc2)NC(=O)OC(C)(C)C)c(=O)c1=O)C(=O)O
Activity (N2a): Non-Toxic

SMILES: CC(C)(C)OC(=O)N[C@H](CNc1c(N[C@@H](CS)C(=O)O)c(=O)c1=O)Cc1ccccc1
Activity (N2a): Non-Toxic
